Converted amounts (≈) assume the structure as drawn. Blank lines part the entries; values can stand above or below the molecule they belong to.
Columns and labels:
MOLT4 cells [1] = experiment: In situ click reaction with AlexaFluor488-azide, flow cytometry, MOLT4; assay type: cell-based
Method: (§1) In situ “click” reactions were performed using cells harvested after 2 days of treatment with DMSO, 3-Eth-5-NIdR (10, 40, or 100 μg mL^−1), 5-NIdR (100 μg mL^−1) or 5-ethynyl-2′-deoxyuridine (EdU) (10 μM). All cells were fixed with cold methanol. Under minimal lighting, cells were treated with 0.3 mL of saponin-based permeabilization and wash buffer for 45 min at 37° C. Click reactions were initiated by adding the click-iT reaction cocktail according to the instructions of the manufacturer (Invitrogen) followed by incubation at 37° C. for 90 min. Cells were then washed two times with saponin-based permeabilization and wash buffer. Cell pellets were dislodged using 0.5 mL solution of 10 μg mL^−1 PI and RNAase A in saponin-based permeabilization and wash buffer and then incubated for at least 15 min prior to flow cytometry analysis.
MOLT4 cells were treated with DMSO, EdU (a “clickable” thymidine analogue), 5-NIdR, and 3-Eth-5-NIdR for 2 days and then washed with PBS to remove any nucleoside and/or nucleotide not incorporated into DNA. After fixation and permeabilization, the cells were treated with AlexaFluor488-azide and Cu(I) catalyst to commence “clicking” of any incorporated nonnatural nucleotide. Dual parameter flow cytometry applying PI staining coupled with detection of the AlexaFluor488 fluorophore was used to detect the “clicked” non-natural nucleotide in cellular DNA. […] This high amount of “clicked” DNA reflects transport of EdU into the cell, conversion to the corresponding nucleoside triphosphate, and incorporation into the DNA of replicating cells. MOLT4 cells treated with 10 μg mL^−1 3-Eth-5-NIdR also show appreciable levels of AlexaFluor488 stained DNA (2.8%) after 2 days of treatment. Furthermore, the amount of “clicked” DNA is dosedependent as treatment with 40 μg mL^−1 Eth-5-NIdR yields a […] increase in AlexaFluor488 staining (6.5%). Identical experiments were performed using the Loucy cell line that lacks TdT and thus is less sensitive to the cytotoxic effects of the non-natural nucleoside (vide inf ra). […] Treatment with 40 μg mL^−1 of 3-Eth-5-NIdR produces low levels of “clicked” DNA (0.02%). […] Once incorporated into DNA, the non-natural nucleotide inhibits cellular DNA replication and induces apoptosis. Finally, it should be emphasized that low levels (<0.5%) of AlexaFluor488 staining are detected in cells treated with 100 μg mL^−1 5-NIdR.

J45.01 cells = experiment: Cell proliferation assay (trypan blue), J45.01; assay type: cell-based; settings: J45.01, up to 72 h
Method: (§2) Cells were seeded at a population density of ˜200,000 cells mL-1 and treated with variable concentrations of non-natural nucleoside (0.1-100 μg mL-1) for up to 72 h. The final DMSO concentration in all experiments was 0.1%. Cell viability was assessed via trypan blue staining and counting the number of viable (clear) versus non-viable (blue) cells under a microscopy using a hemocytometer. The IC50 values for both nonnatural nucleosides were obtained using a nonlinear regression curve fit of the data to eq 3. LD50 values for the non-natural nucleosides were calculated using identical approaches.
(§3) Identical cell-based experiments were performed with the other ALL cell lines, and the corresponding IC50 and LD50 values for 5-NIdR and 3-Eth-5-NIdR against each cell line are summarized in Table 2. […] The increased potency of 3-Eth-5-NIdR likely reflects the higher catalytic efficiency for the corresponding nucleoside triphosphate to act as a chain-terminating substrate for TdT. […] In general, there is an excellent correlation (R^2=0.695, p<0.0001) between the anti-cancer effects of the non-natural nucleoside with TdT level. Similar analyses were performed by plotting the LD50 values of 3-Eth-5-NIdR as a function of TdT content (FIG. 3E).

MOLT4 cells [2] = experiment: Apoptosis measurement (Annexin V-Alexa Fluor 488 / propidium iodide flow cytometry); assay type: cell-based; settings: for PI uptake (necrotic cell death): MOLT4
Method: Cells were treated with DMSO (vehicle), 5-NIdR (100 μg mL-1), and 3-Eth-5-NIdR (10 and 40 μg mL-1) as described above. Cells were harvested by centrifugation and washed in phosphate-buffered saline and resuspended in 100 μL of binding buffer containing AnnexinV-Alexa Fluor 488 conjugate. Cells were treated with propidium iodide (PI) and incubated at RT for 15 min followed by flow cytometry analysis. This enables live cells (unstained with either Alexa Fluor 488 or PI) to be discriminated from early apoptotic (stained with Alexa Fluor 488), late apoptotic cells (stained with Alexa Fluor 488 and PI), and necrotic cells (stained with PI).
The mechanism by which these non-natural nucleosides induce cell death was interrogated using dual parameter FACS analyses measuring propidium iodide uptake and Alexa Fluor488 annexin V conjugate staining. This allows live cells (unstained with either fluorophore) to be distinguished from cells that are early apoptotic (annexin V staining only), late apoptotic (propidium iodide and annexin V staining), and necrotic (propidium iodide staining only). […] In this case, treatment with 100 μg mL^−1 5-NIdR causes a 5-fold increase in early and late stage apoptosis, respectively. […] The induction of apoptosis was also independently confirmed by using agarose gel electrophoresis to observe DNA cleavage sites between nucleosomes that occur in chromatin at ˜200-base pair intervals.

Jurkat cells = experiment: Cell proliferation assay (trypan blue), Jurkat; assay type: cell-based; settings: up to 72 h
Method: as §2, §3

Loucy cells [3] = experiment: Cell proliferation assay (trypan blue), Loucy; assay type: cell-based; settings: for IC50 / LD50: Loucy (TdT-negative), up to 72 h
Method: as §2

Loucy cells [4] = experiment: In situ click reaction with AlexaFluor488-azide, flow cytometry, Loucy; assay type: cell-based; settings: 40 μg mL^−1, 2 days
Method: as §1
MOLT4 cells were treated with DMSO, EdU (a “clickable” thymidine analogue), 5-NIdR, and 3-Eth-5-NIdR for 2 days and then washed with PBS to remove any nucleoside and/or nucleotide not incorporated into DNA. After fixation and permeabilization, the cells were treated with AlexaFluor488-azide and Cu(I) catalyst to commence “clicking” of any incorporated nonnatural nucleotide. […] Finally, it should be emphasized that low levels (<0.5%) of AlexaFluor488 staining are detected in cells treated with 100 μg mL^−1 5-NIdR.

CEM-C7 cells = experiment: Cell proliferation assay (trypan blue), CEM-C7; assay type: cell-based; settings: CEM-C7, up to 72 h
Method: as §2, §3

RS4(11) cells = experiment: Cell proliferation assay (trypan blue), RS4(11); assay type: cell-based; settings: up to 72 h
Method: as §2, §3

MOLT4 cells [5] = experiment: Cell proliferation assay (trypan blue, viable vs non-viable cells), MOLT4; assay type: cell-based; settings: for IC50 / LD50: MOLT4, up to 72 h
Method: as §2
This hypothesis was tested by measuring the cytostatic and/or cytotoxic effects of the corresponding nucleoside, 3-Eth-5-NIdR, and 5-nitroindolyl-2′-deoxynucleoside (5-NIdR) against various ALL cell lines including MOLT4, CEM-C7, Jurkat, RS4(11), JS45.01, and Loucy. Western blot analyses was first performed to determine TdT levels in each ALL cell line. […] We next tested the efficacy of 5-NIdR and 3-Eth-5-NIdR by treating exponentially growing cells with variable concentrations (0.1-100 μg mL^−1) of each non-natural nucleoside for time periods of up to 3 days.

[6] = target: terminal deoxynucleotidyl transferase (TdT) (Bos taurus, UniProt P06526); experiment: Incorporation of natural and non-natural nucleotides by TdT (polymerization assay, Michaelis-Menten kinetics); assay type: biochemical
Sequence of terminal deoxynucleotidyl transferase (TdT) (P06526 whole entry): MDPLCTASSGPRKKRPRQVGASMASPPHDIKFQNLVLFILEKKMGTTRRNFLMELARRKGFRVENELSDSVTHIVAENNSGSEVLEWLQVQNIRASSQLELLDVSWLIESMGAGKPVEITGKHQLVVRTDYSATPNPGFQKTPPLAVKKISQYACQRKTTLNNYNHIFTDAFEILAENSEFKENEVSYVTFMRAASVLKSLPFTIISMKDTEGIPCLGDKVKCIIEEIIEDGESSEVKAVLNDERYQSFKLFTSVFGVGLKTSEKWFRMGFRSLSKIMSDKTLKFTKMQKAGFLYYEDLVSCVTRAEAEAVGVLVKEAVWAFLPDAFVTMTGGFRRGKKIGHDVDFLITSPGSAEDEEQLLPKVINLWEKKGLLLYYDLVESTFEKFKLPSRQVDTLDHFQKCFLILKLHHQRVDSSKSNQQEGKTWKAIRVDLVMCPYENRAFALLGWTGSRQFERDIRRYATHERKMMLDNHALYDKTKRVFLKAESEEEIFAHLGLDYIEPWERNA
Method: All enzymatic assays were performed as previously described. […] Reactions were quenched with 200 Mm EDTA at variable times (5-600 s) and analyzed using denaturing gel electrophoresis. Time courses in product formation were fitted using eq 1: Y=mt+b(1) (1)
where y is the amount of product, m is the rate of the reaction, t is time, and b is the Y-intercept. Km and Vmax values were determined by fits of the data points to the Michaelis-Menten equation: […]
where Vmax is the maximal rate of nucleotide incorporation, Km is the Michaelis constant for dNTP, and [dNTP] is the concentration of nucleotide substrate. The IC50 value for 3-Eth-5-NITP was obtained using a nonlinear regression curve fit of the data to eq 3:
The biological function of TdT is to expand immunological diversity by randomly incorporating dNTPs into single-stranded DNA during V(D)J recombination. […] TdT also utilizes nucleotide analogues including 2′,3′-dideoxynucleotides, dinucleoside 5′,5′-tetraphosphates, and intrinsically fluorescent nucleotide analogues. In this report, we tested if TdT also incorporates indolyl-2′-deoxyribose-5′-triphosphates that bear non-natural moieties such as ethynyl and nitro groups at the 3- and 5-position, respectively, of the indole base. […] Aliquots of the reaction were quenched with EDTA at variable time points, and the polymerization reactions were then subjected to denaturing polyacrylamide gel electrophoresis to separate extended primers from unreacted substrate.
Time courses in product formation were generated using pseudo-first order reaction conditions in which 6 units of TdT were incubated with 1.5 μM DNA substrate and mixed with variable concentrations of non-natural nucleotide (0.05-50 μM). Each time course was fit to an equation for a straight line to define the rate of nucleotide incorporation (data not shown).

[7] = MOLT4, 40 μg mL^−1, compared to DMSO
[8] = incorporation by TdT, 6 units TdT, 1.5 μM single-stranded DNA substrate
[9] = MOLT4, 100 μg mL^−1, compared to DMSO
[10] = MOLT4, 100 μg mL^−1, 2 days post-treatment

SMILES: C#Cc1cn([C@H]2C[C@H](O)[C@@H](CO)O2)c2ccc([N+](=O)[O-])cc12 [3-Eth-5-NIdR, 3-ethynyl-5-nitroindolyl-2′-deoxynucleoside]
AlexaFluor488 stained (clicked) DNA (MOLT4 cells [1]; MOLT4, 10 μg mL^−1, 2 days): 2.8%
AlexaFluor488 staining (clicked DNA) (MOLT4 cells [1]; MOLT4, 40 μg mL^−1, 2 days): 6.5%
increase in AlexaFluor488 staining (MOLT4 cells [1]; MOLT4, 40 vs 10 μg mL^−1): 2.5 fold
IC50 (J45.01 cells): 34 ± 6 µg/mL (≈ 112 µM)
LD50 (J45.01 cells): 71 ± 6 µg/mL
PI uptake (necrotic cell death) (MOLT4 cells [2]): no significant PI uptake
Early apoptoic cells (%) (MOLT4 cells [2]; MOLT4, 10 μg mL^−1): 10.5 ± 1.5%
Late apoptoic cells (%) (MOLT4 cells [2]; MOLT4, 10 μg mL^−1): 5.4 ± 1.0%
Necrotic cells (%) (MOLT4 cells [2]; MOLT4, 10 μg mL^−1): 0.7 ± 0.2%
Viable cells (%) (MOLT4 cells [2]; MOLT4, 10 μg mL^−1): 83.4 ± 2.7%
level of apoptosis compared with 100 μg mL^−1 5-NIdR (MOLT4 cells [2]; MOLT4, 10 μg mL^−1): equivalent levels of apoptosis
Early apoptoic cells (%) (MOLT4 cells [2]; MOLT4, 40 μg mL^−1): 68.8 ± 0.9%
Late apoptoic cells (%) (MOLT4 cells [2]; MOLT4, 40 μg mL^−1): 23.7 ± 4.9%
Necrotic cells (%) (MOLT4 cells [2]; MOLT4, 40 μg mL^−1): 1.2 ± 0.2%
Viable cells (%) (MOLT4 cells [2]; MOLT4, 40 μg mL^−1): 6.3 ± 3.7%
increase in early stage apoptosis (MOLT4 cells [2]; [7]): 13 fold
increase in late stage apoptosis (MOLT4 cells [2]; [7]): 7 fold
IC50 (Jurkat cells): 49 ± 1 µg/mL (≈ 162 µM)
LD50 (Jurkat cells): ~100 µg/mL
IC50 (Loucy cells [3]): 62 ± 5 µg/mL (≈ 205 µM)
LD50 (Loucy cells [3]): 63 ± 3 µg/mL
cytostatic or cytotoxic effects (Loucy cells [3]; Loucy, 40 μg mL^−1): significant cytostatic or cytotoxic effects are not observed
clicked DNA (AlexaFluor488 staining) (Loucy cells [4]): 0.02%
IC50 (CEM-C7 cells): 23 ± 2 µg/mL (≈ 76.1 µM)
LD50 (CEM-C7 cells): ~100 µg/mL
IC50 (RS4(11) cells): 23 ± 2 µg/mL (≈ 76.1 µM)
LD50 (RS4(11) cells): 57 ± 2 µg/mL
cytostatic and cytotoxic effects (MOLT4 cells [5]; MOLT4, 10 μg mL^−1): cytostatic and cytotoxic effects are observed
IC50 (MOLT4 cells [5]): 14.1 ± 2.4 µg/mL (≈ 46.6 µM)
LD50 (MOLT4 cells [5]): 27.7 ± 1.7 µg/mL
IC50 (MOLT4 cells [5]; listed as 3-Eth-5-NIdr): 14 ± 2 µg/mL (≈ 46.3 µM)
LD50 (MOLT4 cells [5]; listed as 3-Eth-5-NIdr): 28 ± 4 µg/mL

extension by TdT beyond the incorporated nucleotide ([6]; 100 μM nucleotide, 14-mer DNA, gel (FIG. 2B)): rivals that of the natural purines
Km [6, 8]: 4.6 ± 0.6 µM
Vmax [6, 8]: 11.5 ± 0.4 nM/s
SMILES: O=[N+]([O-])c1ccc2c(ccn2C2CC(O)C(COP(=O)(O)OP(=O)(O)OP(=O)(O)O)O2)c1 (stereo not drawn) [5-NITP]
utilization by TdT (elongation of 14-mer DNA substrate) ([6]; 100 μM nucleotide, 6 units TdT, 1.5 μM 14-mer (FIG. 2B)): utilized by TdT as efficiently as the natural purines

SMILES: O=[N+]([O-])c1ccc2c(ccn2[C@H]2C[C@H](O)[C@@H](CO)O2)c1 [5-NIdR, 5-nitroindolyl-2′-deoxynucleoside, reference compound]
AlexaFluor488 staining (MOLT4 cells [1]; 100 μg mL^−1, 2 days, cell line not given): < 0.5%
IC50 (J45.01 cells): ~100 µg/mL (≈ 359 µM)
LD50 (J45.01 cells): >>100 μg mL^−1
PI uptake (necrotic cell death) (MOLT4 cells [2]): no significant PI uptake
Early apoptoic cells (%) (MOLT4 cells [2]; MOLT4, 100 μg mL^−1): 26.5 ± 3.7%
Late apoptoic cells (%) (MOLT4 cells [2]; MOLT4, 100 μg mL^−1): 18.9 ± 3.4%
Necrotic cells (%) (MOLT4 cells [2]; MOLT4, 100 μg mL^−1): 1.5 ± 0.5%
Viable cells (%) (MOLT4 cells [2]; MOLT4, 100 μg mL^−1): 53.1 ± 6.7%
increase in early stage apoptosis (MOLT4 cells [2]; [9]): 5 fold
increase in late stage apoptosis (MOLT4 cells [2]; [9]): 5 fold
IC50 (Jurkat cells): ~100 µg/mL (≈ 359 µM)
LD50 (Jurkat cells): >>100 μg mL^−1
IC50 (Loucy cells [3]): >>100 μg mL^−1
LD50 (Loucy cells [3]): >>100 μg mL^−1
increase in the number of non-viable cells (Loucy cells [3]; Loucy, 100 μg mL^−1): does not cause a substantial increase
reduction in the number of viable cells (Loucy cells [3]; Loucy, 100 μg mL^−1): < 25%
IC50 (CEM-C7 cells): ~100 µg/mL (≈ 359 µM)
LD50 (CEM-C7 cells): >>100 μg mL^−1
IC50 (RS4(11) cells): >100 µg/mL
LD50 (RS4(11) cells): >>100 μg mL^−1
increase in the number of non-viable cells (MOLT4 cells [5]; [10]): 2.5 fold
reduction in the number of viable cells (MOLT4 cells [5]; [10]): ~5 fold
IC50 (MOLT4 cells [5]): 34 ± 6 µg/mL (≈ 122 µM)
LD50 (MOLT4 cells [5]): ~100 µg/mL
